In US20180071242A1, “SUBSTITUTED ACYLANILIDES AND METHODS OF USE THEREOF” (University of Tennessee Research Foundation, priority 2006, published 2018):

Experiments:
GR = molecular target: T1, GR (Rattus norvegicus, UniProt P06536); assay: Transient transfection luciferase transactivation assay in HEK-293 cells; type: cell-based; settings: 1 nM
T1 construct: expressed in transfected cells; host or cells: HEK-293
T1 sequence (P06536 1-795): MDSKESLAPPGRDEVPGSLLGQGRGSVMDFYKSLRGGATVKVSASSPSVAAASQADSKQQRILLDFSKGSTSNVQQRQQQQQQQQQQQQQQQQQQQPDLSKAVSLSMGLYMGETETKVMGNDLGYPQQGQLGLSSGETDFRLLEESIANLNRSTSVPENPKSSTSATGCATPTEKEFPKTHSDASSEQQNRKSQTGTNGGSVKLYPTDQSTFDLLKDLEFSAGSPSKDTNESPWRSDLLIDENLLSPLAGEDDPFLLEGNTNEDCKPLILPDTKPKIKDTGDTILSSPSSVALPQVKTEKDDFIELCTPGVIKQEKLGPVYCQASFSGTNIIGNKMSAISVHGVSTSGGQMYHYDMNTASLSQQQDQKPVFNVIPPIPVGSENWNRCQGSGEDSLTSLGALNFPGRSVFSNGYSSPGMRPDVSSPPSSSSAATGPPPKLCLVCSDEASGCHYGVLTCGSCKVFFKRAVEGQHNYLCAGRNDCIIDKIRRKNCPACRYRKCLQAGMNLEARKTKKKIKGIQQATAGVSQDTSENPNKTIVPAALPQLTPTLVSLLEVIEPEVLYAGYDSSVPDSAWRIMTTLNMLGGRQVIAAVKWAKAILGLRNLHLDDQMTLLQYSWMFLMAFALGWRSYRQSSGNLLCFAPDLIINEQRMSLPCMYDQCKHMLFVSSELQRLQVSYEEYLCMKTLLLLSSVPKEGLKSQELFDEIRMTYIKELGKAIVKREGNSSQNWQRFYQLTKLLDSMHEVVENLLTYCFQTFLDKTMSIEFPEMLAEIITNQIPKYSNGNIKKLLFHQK

PR = molecular target: T2, PR (Rattus norvegicus, UniProt Q63449); assay: as above; type: cell-based; settings: 1 nM
T2 construct: expressed in transfected cells; host or cells: HEK-293
T2 sequence (Q63449 1-923): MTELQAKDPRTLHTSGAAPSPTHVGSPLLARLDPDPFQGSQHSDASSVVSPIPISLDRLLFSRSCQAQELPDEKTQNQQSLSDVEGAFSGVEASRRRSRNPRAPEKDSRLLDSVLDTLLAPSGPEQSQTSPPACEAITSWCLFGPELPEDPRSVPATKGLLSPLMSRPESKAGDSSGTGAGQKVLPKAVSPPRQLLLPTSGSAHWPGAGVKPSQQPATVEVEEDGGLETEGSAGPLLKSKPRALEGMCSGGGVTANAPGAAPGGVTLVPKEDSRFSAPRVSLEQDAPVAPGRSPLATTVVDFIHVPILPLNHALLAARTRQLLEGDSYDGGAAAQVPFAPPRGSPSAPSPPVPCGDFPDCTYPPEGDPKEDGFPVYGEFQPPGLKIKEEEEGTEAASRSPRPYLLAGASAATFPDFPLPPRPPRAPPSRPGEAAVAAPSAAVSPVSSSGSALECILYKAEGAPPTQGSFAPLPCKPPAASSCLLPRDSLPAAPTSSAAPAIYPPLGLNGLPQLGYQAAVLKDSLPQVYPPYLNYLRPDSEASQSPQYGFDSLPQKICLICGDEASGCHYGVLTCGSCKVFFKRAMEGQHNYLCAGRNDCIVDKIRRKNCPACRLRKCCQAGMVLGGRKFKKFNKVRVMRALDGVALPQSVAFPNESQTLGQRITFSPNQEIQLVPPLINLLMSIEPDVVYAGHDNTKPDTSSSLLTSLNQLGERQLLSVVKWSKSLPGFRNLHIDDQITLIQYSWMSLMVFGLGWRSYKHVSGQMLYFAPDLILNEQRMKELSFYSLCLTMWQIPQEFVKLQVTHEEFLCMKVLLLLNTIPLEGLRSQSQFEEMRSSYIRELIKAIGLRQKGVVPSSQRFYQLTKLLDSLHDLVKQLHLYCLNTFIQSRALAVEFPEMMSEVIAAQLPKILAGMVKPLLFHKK

MR = molecular target: T3, MR (Rattus norvegicus, UniProt P22199); assay: as above; type: cell-based; settings: 1 nM
T3 construct: expressed in transfected cells; host or cells: HEK-293
T3 sequence (P22199 1-981): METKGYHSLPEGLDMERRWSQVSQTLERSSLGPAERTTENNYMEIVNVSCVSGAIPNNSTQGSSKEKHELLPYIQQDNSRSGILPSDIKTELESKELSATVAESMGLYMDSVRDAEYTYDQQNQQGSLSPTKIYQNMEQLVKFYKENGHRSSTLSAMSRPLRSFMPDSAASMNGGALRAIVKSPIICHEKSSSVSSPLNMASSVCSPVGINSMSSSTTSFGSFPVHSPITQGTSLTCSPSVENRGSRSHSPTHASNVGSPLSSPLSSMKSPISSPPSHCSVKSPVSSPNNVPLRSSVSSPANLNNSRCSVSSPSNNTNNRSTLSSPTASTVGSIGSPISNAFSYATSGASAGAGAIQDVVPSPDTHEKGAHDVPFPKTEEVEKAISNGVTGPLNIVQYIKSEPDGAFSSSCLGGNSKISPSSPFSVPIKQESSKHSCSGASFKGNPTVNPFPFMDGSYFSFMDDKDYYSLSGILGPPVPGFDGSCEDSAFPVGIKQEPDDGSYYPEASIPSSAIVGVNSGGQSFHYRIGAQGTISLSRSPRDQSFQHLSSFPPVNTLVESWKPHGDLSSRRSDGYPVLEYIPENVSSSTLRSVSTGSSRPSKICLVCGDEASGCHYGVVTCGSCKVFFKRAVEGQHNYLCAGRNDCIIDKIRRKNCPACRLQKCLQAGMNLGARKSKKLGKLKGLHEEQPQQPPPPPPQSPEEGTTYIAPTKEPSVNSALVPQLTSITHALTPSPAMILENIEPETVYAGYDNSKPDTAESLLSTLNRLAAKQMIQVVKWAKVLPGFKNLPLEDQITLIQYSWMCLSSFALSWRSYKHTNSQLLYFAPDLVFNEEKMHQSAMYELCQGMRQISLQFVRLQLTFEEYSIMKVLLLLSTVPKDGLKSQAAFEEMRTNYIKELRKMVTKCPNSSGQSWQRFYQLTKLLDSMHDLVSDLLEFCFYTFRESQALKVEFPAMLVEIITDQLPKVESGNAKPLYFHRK

[1] = system: orchidectomized (ORX) male Sprague-Dawley rats; assay: Anabolic and androgenic activity in castrated (ORX) male rats; type: in vivo, rat; settings: maximally stimulated
Protocol: Anabolic and androgenic efficacy of compound of formula (I) administered by daily oral gavage were tested. The S-isomer of compound (I) [S-(I)] was synthesized and tested as described herein.
The test article for this study was weighed and dissolved in 10% DMSO (Fischer) diluted with PEG 300 (Acros Organics, NJ) for preparation of the appropriate dosage concentrations. The animals were housed in groups of 2 to 3 animals per cage. Animals were randomly assigned to one of seven groups consisting of 4 to 5 animals per group. Control groups (intact and ORX) were administered vehicle daily. S-(I) was administered via oral gavage at doses of 0.01, 0.03, 0.1, 0.3, 0.75, and 1 mg/day to both intact and ORX groups. Where appropriate, animals were castrated on day one of the study. Treatment with S-(I) began nine days post ORX and was administered daily via oral gavage for fourteen days.
The animals were sacrificed under anesthesia (ketamine/xyalzine, 87:13 mg/kg) and body weights were recorded. In addition, ventral prostate, seminal vesicles, and levator ani muscle were removed, individually weighed, normalized to body weight, and expressed as a percentage of intact control. Student's T-test was used to compare individual dose groups to the intact control group. Significance was defined a priori as a P-value <0.05. Ventral prostate and seminal vesicle weights were evaluated as a measure of androgenic activity, whereas levator ani muscle weight was evaluated as a measure of anabolic activity. Blood was collected from the abdominal aorta, centrifuged, and sera were frozen at −80° C. prior to determination of serum hormone levels. Serum luteinizing hormone (LH) and follicle stimulating hormone (FSH) concentrations were determined.

[2] = system: DMD (−/−) UTRN (−/−) mice; assay: Double knockout mouse model of Duchenne muscular dystrophy; settings: 10 mg/kg/day, data cumulative across the SARM groups
CYP2C9 = molecular target: T4, CYP2C9 (Homo sapiens, UniProt P11712); assay: CYP inhibition screening, recombinant enzyme (fluorescent-based) assay; type: in vitro ADME; settings: human, 30 min
T4 construct: purchased Gentest, BD Biosciences
T4 sequence (P11712 whole entry): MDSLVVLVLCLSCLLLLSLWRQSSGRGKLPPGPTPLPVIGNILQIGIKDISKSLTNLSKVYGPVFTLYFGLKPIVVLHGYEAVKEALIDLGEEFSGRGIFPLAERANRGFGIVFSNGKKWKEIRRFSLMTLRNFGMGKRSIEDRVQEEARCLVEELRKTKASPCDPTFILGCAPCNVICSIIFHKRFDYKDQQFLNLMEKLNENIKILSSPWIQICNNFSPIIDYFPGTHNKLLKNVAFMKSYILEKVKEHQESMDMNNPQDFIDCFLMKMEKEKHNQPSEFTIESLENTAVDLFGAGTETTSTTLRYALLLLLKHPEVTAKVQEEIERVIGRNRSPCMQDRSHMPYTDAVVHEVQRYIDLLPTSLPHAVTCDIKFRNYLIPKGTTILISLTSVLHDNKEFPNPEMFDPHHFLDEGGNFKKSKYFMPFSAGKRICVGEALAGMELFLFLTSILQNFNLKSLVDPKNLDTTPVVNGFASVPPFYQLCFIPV

## C[C@@H]1C[C@H]2[C@@H]3CCC4=CC(=O)C=C[C@]4(C)[C@@]3(F)[C@@H](O)C[C@]2(C)[C@@]1(O)C(=O)CO [dexamethasone, reference compound]
GR
  GR activity induced by known ligand: 70 fold

## CC(=O)[C@H]1CC[C@H]2[C@@H]3CCC4=CC(=O)CC[C@]4(C)[C@H]3CC[C@]12C [progesterone, reference compound]
PR
  PR activity induced by known ligand: 23 fold

## C[C@]12CCC(=O)C=C1CC[C@@H]1[C@@H]2[C@@H](O)C[C@]2(C=O)[C@@H](C(=O)CO)CC[C@@H]12 [aldosterone, reference compound]
MR
  MR activity induced by known ligand: 60 fold

## CC(=O)Nc1ccc(OC[C@](C)(O)C(=O)Nc2ccc([N+](=O)[O-])c(C(F)(F)F)c2)cc1 [S-4, S-3-(4-acetylaminophenoxy)-2-hydroxy-2-methyl-N-(4-nitro-3-trifluoromethylphenyl)propanamide, reference compound]
[1]
  Maximal stimulation of levator ani muscle weight: 101%

## CC#C[C@]1(O)CC[C@H]2[C@@H]3CCC4=CC(=O)CCC4=C3[C@@H](c3ccc(N(C)C)cc3)C[C@@]21C [RU486, reference compound]
PR
  Inhibition of PR activity, antagonist mode (in words): completely inhibited

## C[C@](O)(COc1ccc(C#N)c(F)c1)C(=O)Nc1ccc(C#N)c(C(F)(F)F)c1 [S-(V)]
[2]
  Ability to be ambulatory (in words): enhanced the ability of these mice to be ambulatory
  Deterioration of body weight (in words): delayed the deterioration
  Deterioration of grip strength (in words): delayed the deterioration
  Deterioration of lean mass (in words): delayed the deterioration

## C[C@](O)(COc1ccc(C#N)cc1)C(=O)Nc1ccc(C#N)c(C(F)(F)F)c1 [S-(IV)]
[2]
  Ability to be ambulatory (in words): enhanced the ability of these mice to be ambulatory
  Deterioration of body weight (in words): delayed the deterioration
  Deterioration of grip strength (in words): delayed the deterioration
  Deterioration of lean mass (in words): delayed the deterioration

## Nc1ccc(S(=O)(=O)Nc2ccnn2-c2ccccc2)cc1 [Sulfaphenazole, reference compound]
CYP2C9
  Inhibition of CYP2C9 activity (in words): potently inhibited

## CCC(=O)O[C@H]1CC[C@H]2[C@@H]3CCC4=CC(=O)CC[C@]4(C)[C@H]3CC[C@]12C [Testosterone propionate, reference compound]
[1]
  Maximal stimulation of levator ani muscle weight: 104%
